Source: patent US20210353611A1, “METHODS OF TREATING AMYOTROPHIC LATERAL SCLEROSIS” (Yeda Research and Development Co. Ltd., priority 2018, published 2021)
Structures can show the parent of a compound that is named as a salt.

Columns and labels:
[1] = NAM levels in CSF and sera of mice (targeted metabolomics); conditions: NAM 49.28 mg/kg/week s.c. osmotic pumps; SOD1-Tg mice vs water-treated controls
Description: Mice were anesthetized by i.p. injection of ketamine (100 mg/kg) and xylazine (10 mg/kg). The skin of the neck was shaved, and the mouse was placed prone on the stereotaxic instrument. The head was secured with the head adaptors. […] Under the dissection microscope, the subcutaneous tissue and muscles (m. biventer cervicis and m. rectus capitis dorsalis major) were separated by blunt dissection with forceps. A pair of micro-retractors is used to hold the muscles apart. The dura mater was blotted dry with sterile cotton swab. CSF was collected using a capillary tube to penetrate into the cisterna magna through the dura mater, lateral to the arteria dorsalis spinalis, immediately frozen in liquid nitrogen and stored at −80° C.
The samples (in 50% Methanol) were dried in a speed vac to blow off the methanol before drying to completion in a lyophilizer. All samples were re-dissolved in 100 μl of 0.1% formic acid.
Liquid Chromatography: Liquid chromatography was performed on a Waters Acquity UPLC system. […] Mobile phase consisted of (A) water and (B) acetonitrile each containing 0.1% formic acid. […]
Mass Spectrometry: LC-MS/MS analysis was performed on a Waters Xevo triple quadrupole equipped with a Zspray ESI source. […] TargetLynx (Waters) was used for Qualitative and Quantitative analysis.

[2] = system: SOD1-Tg mice; experiment: Motor function tests (rotarod, hanging-wire grip test, neurological scoring) in ALS mouse model; assay type: in vivo; conditions: subcutaneously implanted mini osmotic pumps, continuous administration; vs vehicle-treated SOD1-Tg mice
Text: G93A mSOD1-Tg mice on a C57BL/6 background were used. In all experiments, age- and gender-matched mice were used and WT littermates as controls. Mice were 40 days of age at the beginning of experiments. All mice were kept at a strict 24 hr reverse light-dark cycle, with lights being turned on from 10 pm to 10 am. Tryptophan-deficient diet (A10033Yi, Research diets, NJ, USA) was applied from the age of 40 days until the experimental end-point. For antibiotic treatment, mice were given a combination of vancomycin (0.5 g/l), ampicillin (1 g/l), kanamycin (1 g/l), and metronidazole (1 g/l) in their drinking water from the age of 40 days as previously described (Levy et al., 2015). […]
Vehicle control pumps contained equivalent volume of Ultra-pure water. […] The cut was then closed with sterile surgical clips and the animals were carefully monitored for any signs of stress, bleeding, pain, or abnormal behavior. […]
Rotarod: To assess motor coordination and balance, each mouse was tested with a rotarod device (Panlab Le8500 Harvard Apparatus, Spain), in acceleration speed mode (increasing from 4 rpm to 40 rpm during 10 min), with a maximum test time of 5 min. […] Each mouse was recorded three times at the ages of 60, 80, 100, 120 and 140 days. The apparatus automatically recorded the elapsed time when the mouse fell from the spindle. […]

[3] = system: SOD1-Tg mice; experiment: Survival of SOD1-Tg mice; assay type: in vivo, mouse; conditions: NAM s.c. osmotic pumps vs vehicle; p=0.1757, Log-rank test
Description: From the age of 130 days, mice were monitored daily. The endpoint was defined by reaching neurological score of 4 and/or more than 15% reduction in body weight. The probability of survival was calculated using the Kaplan-Meier method, and statistical analysis was performed using a log-rank test.

With `NC(=O)c1cccnc1` [NAM, Nicotinamide] the “NAM levels in sera” value [1] was “significantly increased”, the “ALS symptoms / behavioral and neurological motor tests” value [2] was “performed significantly better” and the Survival [3] was “non-significantly trend to improve survival”.

In the case of `O=S(=O)(O)Oc1ccccc1` [Phenol sulfate], the “ALS symptoms / behavioral and neurological motor tests” value [2] is reported as “did not affect ALS symptoms”.
